Results from patent publication US9096518B2, “Substituted hydroxamic acids and uses thereof” (Millennium Pharmaceuticals, Inc., priority 2009, dated 2015).

biological target: T1, purified human HDAC6 (Homo sapiens, UniProt Q9UBN7); assay: HDAC6 Enzyme Assay; assay type: biochemical
T1 construct: purchased BPS Bioscience 5006
T1 sequence (Q9UBN7 1-1215): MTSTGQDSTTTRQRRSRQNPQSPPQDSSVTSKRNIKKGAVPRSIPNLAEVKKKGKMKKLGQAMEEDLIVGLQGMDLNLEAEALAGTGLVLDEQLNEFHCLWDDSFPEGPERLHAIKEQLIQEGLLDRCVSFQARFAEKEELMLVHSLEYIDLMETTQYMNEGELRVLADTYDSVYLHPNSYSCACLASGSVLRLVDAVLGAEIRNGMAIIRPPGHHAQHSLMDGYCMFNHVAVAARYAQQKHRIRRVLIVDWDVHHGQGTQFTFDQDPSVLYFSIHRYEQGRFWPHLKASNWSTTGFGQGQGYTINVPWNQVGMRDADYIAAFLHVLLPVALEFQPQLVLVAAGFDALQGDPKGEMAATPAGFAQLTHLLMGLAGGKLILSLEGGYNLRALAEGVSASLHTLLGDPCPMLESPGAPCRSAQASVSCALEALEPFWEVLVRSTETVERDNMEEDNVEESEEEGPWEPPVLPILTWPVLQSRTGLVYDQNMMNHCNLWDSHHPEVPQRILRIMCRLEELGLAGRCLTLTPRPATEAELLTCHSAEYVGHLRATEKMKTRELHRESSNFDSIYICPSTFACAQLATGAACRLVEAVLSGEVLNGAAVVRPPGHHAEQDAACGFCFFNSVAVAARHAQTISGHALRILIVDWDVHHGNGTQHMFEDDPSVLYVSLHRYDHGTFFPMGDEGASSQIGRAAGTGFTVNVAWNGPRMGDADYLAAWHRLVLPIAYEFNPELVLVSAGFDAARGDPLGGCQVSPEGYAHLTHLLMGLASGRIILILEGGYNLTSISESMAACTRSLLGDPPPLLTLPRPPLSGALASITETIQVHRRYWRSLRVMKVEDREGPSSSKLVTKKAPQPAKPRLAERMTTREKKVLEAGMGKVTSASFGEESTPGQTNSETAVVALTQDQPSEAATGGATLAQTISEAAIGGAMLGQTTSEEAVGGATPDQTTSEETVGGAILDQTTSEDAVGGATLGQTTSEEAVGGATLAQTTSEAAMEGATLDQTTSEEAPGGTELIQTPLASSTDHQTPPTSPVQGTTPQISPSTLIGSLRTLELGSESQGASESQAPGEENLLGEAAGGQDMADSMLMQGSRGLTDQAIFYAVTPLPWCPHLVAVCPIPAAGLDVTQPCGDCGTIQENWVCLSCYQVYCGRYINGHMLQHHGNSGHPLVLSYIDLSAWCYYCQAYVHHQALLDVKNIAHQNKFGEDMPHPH
Procedure: To measure the inhibition of HDAC6 activity, purified human HDAC6 (BPS Bioscience; Cat. No. 5006) is incubated with substrate Ac-Arg-Gly-Lys(Ac)-AMC peptide (Bachem Biosciences; Cat. No. I-1925) for 1 hour at 30° C. in the presence of test compounds or vehicle DMSO control. The reaction is stopped with the HDAC inhibitor trichostatin A (Sigma; Cat. No. T8552) and the amount of Arg-Gly-Lys-AMC generated is quantitated by digestion with trypsin (Sigma; Cat. No. T1426) and subsequent measurement of the amount of AMC released using a fluorescent plate reader (Pherastar; BMG Technologies) set at Ex 340 nm and Em 460 nm. Concentration response curves are generated by calculating the fluorescence increase in test compound-treated samples relative to DMSO-treated controls, and enzyme inhibition (IC50) values are determined from those curves.

| IC50 | Compound |
| --- | --- |
| 0.1 to 0.5 µM | Cc1nc(S(=O)(=O)N2CCc3cc(C(=O)NO)ccc3C2)cn1C [Compound 51, 2-[(1,2-dimethyl-1H-imidazol-4-yl)sulfonyl]-N-hydroxy-1,2,3,4-tetrahydroisoquinoline-6-carboxamide] |
| 0.05 to 0.1 µM | O=C(NO)c1ccc2c(c1)CCN(S(=O)(=O)c1ccc(C(F)(F)F)cc1)C2 [Compound 52, N-hydroxy-2-{[4-(trifluoromethyl)phenyl]sulfonyl}-1,2,3,4-tetrahydroisoquinoline-6-carboxamide] |
| 0.1 to 0.5 µM | Cc1noc(C)c1S(=O)(=O)N1CCc2cc(C(=O)NO)ccc2C1 [Compound 53, 2-[(3,5-dimethylisoxazol-4-yl)sulfonyl]-N-hydroxy-1,2,3,4-tetrahydroisoquinoline-6-carboxamide] |
| 0.05 to 0.1 µM | Cc1n[nH]c(C)c1S(=O)(=O)N1CCc2cc(C(=O)NO)ccc2C1 [Compound 54, 2-[(3,5-dimethyl-1H-pyrazol-4-yl)sulfonyl]-N-hydroxy-1,2,3,4-tetrahydroisoquinoline-6-carboxamide] |
| 0.1 to 0.5 µM | O=C(NO)c1ccc2c(c1)CCN(S(=O)(=O)c1ccc(Oc3ccncc3)cc1)C2 [Compound 55, N-hydroxy-2-{[4-(pyridin-4-yloxy)phenyl]sulfonyl}-1,2,3,4-tetrahydroisoquinoline-6-carboxamide] |
| 0.1 to 0.5 µM | O=C(NO)c1ccc2c(c1)CCN(S(=O)(=O)CC(c1ccccc1)c1ccccc1)C2 [Compound 56, 2-[(2,2-diphenylethyl)sulfonyl]-N-hydroxy-1,2,3,4-tetrahydroisoquinoline-6-carboxamide] |
| 0.05 to 0.1 µM | O=C(NO)c1ccc2c(c1)CCN(Cc1ccccc1)C2 [Compound 57, 2-benzyl-N-hydroxy-1,2,3,4-tetrahydroisoquinoline-6-carboxamide] |
| 0.05 to 0.1 µM | O=C(NO)c1ccc2c(c1)CCN(CCc1cccc3ccccc13)C2 [Compound 58, N-hydroxy-2-[2-(1-naphthyl)ethyl]-1,2,3,4-tetrahydroisoquinoline-6-carboxamide] |
| 0.1 to 0.5 µM | O=C(NO)c1ccc2c(c1)CCN(Cc1ccc(-n3cncn3)cc1)C2 [Compound 59, N-hydroxy-2-[4-(1H-1,2,4-triazol-1-yl)benzyl]-1,2,3,4-tetrahydroisoquinoline-6-carboxamide] |
| 0.05 to 0.1 µM | O=C(NO)c1ccc2c(c1)CCN(Cc1ccc3ccccc3n1)C2 [Compound 60, N-hydroxy-2-(quinolin-2-ylmethyl)-1,2,3,4-tetrahydroisoquinoline-6-carboxamide] |
| 0.1 to 0.5 µM | O=C(NO)c1ccc2c(c1)CCN(Cc1ccc(OC(F)(F)F)cc1)C2 [Compound 61, N-hydroxy-2-[4-(trifluoromethoxy)benzyl]-1,2,3,4-tetrahydroisoquinoline-6-carboxamide] |
| 0.1 to 0.5 µM | O=C(NO)c1ccc2c(c1)CCN(CCCc1ccccc1)C2 [Compound 62, N-hydroxy-2-(3-phenylpropyl)-1,2,3,4-tetrahydroisoquinoline-6-carboxamide] |
| 0.1 to 0.5 µM | O=C(NO)c1ccc2c(c1)CCN(CCOc1ccccc1)C2 [Compound 63, N-hydroxy-2-(2-phenoxyethyl)-1,2,3,4-tetrahydroisoquinoline-6-carboxamide] |
| 0.1 to 0.5 µM | O=C(NO)c1ccc2c(c1)CCN(C/C=C/c1ccccc1)C2 [Compound 64, N-hydroxy-2-[(2E)-3-phenylprop-2-en-1-yl]-1,2,3,4-tetrahydroisoquinoline-6-carboxamide] |
| 0.1 to 0.5 µM | O=C(NO)c1ccc2c(c1)CCN(Cc1ccc3nonc3c1)C2 [Compound 65, 2-(2,1,3-benzoxadiazol-5-ylmethyl)-N-hydroxy-1,2,3,4-tetrahydroisoquinoline-6-carboxamide] |
| 0.1 to 0.5 µM | O=C(NO)c1ccc2c(c1)CCN(Cc1ccc(C(F)(F)F)cc1)C2 [Compound 66, N-hydroxy-2-[4-(trifluoromethyl)benzyl]-1,2,3,4-tetrahydroisoquinoline-6-carboxamide] |
| 0.1 to 0.5 µM | O=C(NO)c1ccc2c(c1)CCN(CCCOc1ccccc1)C2 [Compound 67, N-hydroxy-2-(3-phenoxypropyl)-1,2,3,4-tetrahydroisoquinoline-6-carboxamide] |
| 0.1 to 0.5 µM | O=C(NO)c1ccc2c(c1)CCN(Cc1ccc(-n3cccn3)cc1)C2 [Compound 68, N-hydroxy-2-[4-(1H-pyrazol-1-yl)benzyl]-1,2,3,4-tetrahydroisoquinoline-6-carboxamide] |
| 0.1 to 0.5 µM | O=C(NO)c1ccc2c(c1)CCN(Cc1cccc3nsnc13)C2 [Compound 69, 2-(2,1,3-benzothiadiazol-4-ylmethyl)-N-hydroxy-1,2,3,4-tetrahydroisoquinoline-6-carboxamide] |
| 0.05 to 0.1 µM | O=C(NO)c1ccc2c(c1)CCN(Cc1nc(-c3ccc(Cl)cc3)no1)C2 [Compound 71, 2-{[3-(4-chlorophenyl)-1,2,4-oxadiazol-5-yl]methyl}-N-hydroxy-1,2,3,4-tetrahydroisoquinoline-6-carboxamide] |
| < 0.05 µM | COc1ccccc1-c1nc(CN2CCc3cc(C(=O)NO)ccc3C2)no1 [Compound 72, N-hydroxy-2-{[5-(2-methoxyphenyl)-1,2,4-oxadiazol-3-yl]methyl}-1,2,3,4-tetrahydroisoquinoline-6-carboxamide] |
| 0.05 to 0.1 µM | O=C(NO)c1ccc2c(c1)CCN(CCC(=O)N1CCc3ccccc31)C2 [Compound 73, 2-[3-(2,3-dihydro-1H-indol-1-yl)-3-oxopropyl]-N-hydroxy-1,2,3,4-tetrahydroisoquinoline-6-carboxamide] |
| > 0.5 µM | O=C(NO)c1ccc2c(c1)CCN(Cc1nccn1Cc1ccccc1)C2 [Compound 74, 2-[(1-benzyl-1H-imidazol-2-yl)methyl]-N-hydroxy-1,2,3,4-tetrahydroisoquinoline-6-carboxamide] |
| < 0.05 µM | O=C(NO)c1ccc2c(c1)CCN(c1nc(-c3ccc4c(c3)OCCO4)cs1)C2 [Compound 75, 2-[4-(2,3-dihydro-1,4-benzodioxin-6-yl)-1,3-thiazol-2-yl]-N-hydroxy-1,2,3,4-tetrahydroisoquinoline-6-carboxamide] |
| 0.05 to 0.1 µM | Cc1c(-c2csc(N3CCc4cc(C(=O)NO)ccc4C3)n2)sc2ccccc12 [Compound 76, N-hydroxy-2-[4-(3-methyl-1-benzothien-2-yl)-1,3-thiazol-2-yl]-1,2,3,4-tetrahydroisoquinoline-6-carboxamide] |
| < 0.05 µM | O=C(NO)c1ccc2c(c1)CCN(c1nc(-c3cccc(Cl)c3)cs1)C2 [Compound 77, 2-[4-(3-chlorophenyl)-1,3-thiazol-2-yl]-N-hydroxy-1,2,3,4-tetrahydroisoquinoline-6-carboxamide] |
| < 0.05 µM | Cn1cccc1C(=O)N1Cc2ccc(C(=O)NO)cc2C1 [Compound 78, N-hydroxy-2-[(1-methyl-1H-pyrrol-2-yl)carbonyl]isoindoline-5-carboxamide] |
| < 0.05 µM | COc1cc(Cl)ccc1C(=O)N1Cc2ccc(C(=O)NO)cc2C1 [Compound 79, 2-(4-chloro-2-methoxybenzoyl)-N-hydroxyisoindoline-5-carboxamide] |
| < 0.05 µM | CC(C)(C(=O)N1Cc2ccc(C(=O)NO)cc2C1)c1ccc(Cl)cc1 [Compound 80, 2-[2-(4-chlorophenyl)-2-methylpropanoyl]-N-hydroxyisoindoline-5-carboxamide] |
| 0.05 to 0.1 µM | CC(C)(C)C(=O)N1Cc2ccc(C(=O)NO)cc2C1 [Compound 81, 2-(2,2-dimethylpropanoyl)-N-hydroxyisoindoline-5-carboxamide] |
